Publication PMC10216263, “Favorable Preclinical Pharmacological Profile of a Novel Antimalarial Pyrrolizidinylmethyl Derivative of 4-amino-7-chloroquinoline with Potent In Vitro and In Vivo Activities” (Biomolecules, 2023)
Read-outs that look alike come from different tables or passages of the source.

Assays:
[1] = system: P. falciparum D10 (CQ-S); design: method as in PMID 18538567; details: 72 h incubation, pLDH method, mean of 3 experiments; cited from earlier work
[2] = system: P. falciparum 3D7 (CQ-S); test: In vitro antimalarial activity, [3H]-hypoxanthine incorporation (LSHTM); type: cell-based; details: Plasmodium falciparum, 3D7, read-out: P. falciparum IC50 nM, 3D7 (CQ-S)
[3] = system: P. falciparum V1-S (CQ-R); test: as above; type: cell-based; details: Plasmodium falciparum, read-out: P. falciparum IC50 nM, V1-S (CQ-R)
[4] = system: P. falciparum K1 (CQ-R); test: as above; type: cell-based; details: Plasmodium falciparum
[5] = system: P. falciparum FCR3 (CQ-R); test: as above; type: cell-based; details: Plasmodium falciparum
[6] = system: P. falciparum W2 (CQ-R); design: method as in PMID 18538567; details: 72 h incubation, pLDH method, mean of 3 experiments; cited from earlier work
[7] = system: P. falciparum IPC5202 (ARM-R); test: microbe, parasite or virus in culture; type: cell-based; details: Plasmodium falciparum, 72 h
Procedure: The strains D10 and 3D7 (CQ-Sensitive), and V1-S (CQ, pyrimethamine and cycloguanil resistant), K1 (CQ and PYR resistant), W2 and FCR3 (CQ-Resistant), TM90C2A (CQ, MQ, PYR and ATQ resistant) and IPC 5202 (MR4-1240, artemisinin-resistant, K13 mutation, and R539T) of Pf were cultured in vitro as described by Trager and Jensen with minor modifications. Briefly, parasites were maintained at 5% hematocrit (human type A-positive red blood cells) in RPMI 1640 (EuroClone, S.p.A. Milan, Italy) medium with the addition of 10% heat inactivate human serum or 1% AlbuMax (In vitrogen, Milan, Italy), 20 mM Hepes and 2 mM glutamine (Euroclone), at 37 °C in a standard gas mixture consisting of 1–3% O2, 5% CO2, and 92–94% N2.
Compounds were dissolved in either water or DMSO and then diluted with medium to achieve the required concentrations (final non-toxic DMSO concentration <1%). Asynchronous cultures of Pf with parasitaemia of 1–1.5% and 1% final hematocrit were aliquoted into 96-well flat-bottom microplates (Corning, Glendale, AZ, USA) with serial dilutions of test compounds and incubated for 72 h at 37 °C. Parasite growth was determined spectrophotometrically (OD650) by measuring the activity of the parasite lactate dehydrogenase (pLDH) according to a modified version of the method of Makler in control and drug-treated cultures.

[8] = system: P. berghei ANKA; test: Oral curative activity against P. berghei ANKA; type: in vivo, P. berghei in mice; details: for Average survival (days) after infection: individual values in brackets
[9] = system: P. berghei ANKA; design: method as in PMID 19284751; details: oral 4-day test; cited from earlier work
[10] = system: P. yoelii NS; design: method as in PMID 19284751; details: oral 4-day test; cited from earlier work
[11] = cited from earlier work
[12] = system: Pf-3D7 gametocytes >95% Stage V; test: Gametocyte luciferase assay (3D7elo1-pfs16-CBG99); type: cell-based, P. falciparum; details: Plasmodium falciparum, 3D7, read-out: Pf-3D7 gametocytes IC50 (nM), >95% Stage V
Procedure: (§1) In vitro activity of MG3 against P falciparum sexual gametocyte stages […]
(§2) luminescent transgenic 3D7 strain (3D7elo1-pfs16-CBG99) at two different stages (I-III and V) using the […]
(§3) Briefly, 100 µL of culture medium were removed from each well to increase hematocrit; 70 µL of resuspended culture were transferred to a black 96-well plate; 70 µL of D-luciferin (1 mM in citrate buffer 0.1 M, pH 5.5) were added. Luminescence measurements were performed after 10 min with 500 ms integration time using a Synergy4-BioTek reader.
(§4) (1 picture or pasted object on this page, not shown here)

[13] = system: Pf-3D7 gametocytes >95% Stage I-III; test: Gametocyte luciferase assay (3D7elo1-pfs16-CBG99); type: cell-based, P. falciparum; details: Plasmodium falciparum
Procedure: as §1, §2, §3, §4

[14] = system: rat hepatocytes; test: Metabolic profiling in hepatocytes; type: in vitro ADME; details: rat, 60 min, 10 µM
Procedure: (§5) For metabolite profiling, MG3.2HCl (10 µM) was incubated with mouse, rat, dog, monkey, and human hepatocytes (300,000 cells/mL for the mouse and 1 × 10^6 cells/mL for the other species) in Leibovitz L-15 medium, at 37 °C. Incubations were performed in a 12-well plate under shaking. Aliquots of the incubation samples, together with a control in medium alone, were taken at t = 0 and 60 min; the metabolism was stopped by the addition of an equal volume of chilled ACN and the samples were centrifuged at 1100 rpm for 20 min. The supernatant was stored at −20 °C until analysis. The analyses were performed using an HPLC system (Agilent) online with a photodiode array (PDA) detector (Agilent) coupled to a Mass Spectrometer Q-TOF 2 (Waters), ESI positive, following the method reported in Table 1.
(§6) The software utilized for searching the accurate masses of possible metabolites was Metabolynx, version 4.1 (Waters Corporation, Milford, MA, USA), with a mass window of 40 mDa. Samples were then re-run in MS/MS mode by selecting the masses of possible metabolites found. The collision energy used to obtain MS/MS data was 25 eV. The proposed identity of metabolites was based on their accurate mass (using LockSpray correction), with an accuracy of +/−5 mDa. MS/MS analyses were performed to verify that peaks were drug-related and to obtain structural information from the fragment ions formed. The structures of some metabolites are proposed. The approximate relative amounts of parent and metabolites were determined from the absolute areas taken from a selected ion chromatogram at the metabolite masses with a mass window of 0.04 Da.

[15] = system: dog hepatocytes; test: Metabolic profiling in hepatocytes; type: in vitro ADME; details: 1 h, 10 µM
Procedure: as §5, §6

[16] = system: monkey hepatocytes; test: Metabolic profiling in hepatocytes; type: in vitro ADME; details: 1 h, 10 µM
Procedure: as §5, §6

[17] = system: mouse hepatocytes; test: Metabolic profiling in hepatocytes; type: in vitro ADME; details: 1 h, 10 µM
Procedure: as §5, §6

[18] = system: human hepatocytes; test: Metabolic profiling in hepatocytes; type: in vitro ADME; details: human, 60 min, 10 µM
Procedure: as §5, §6

[19] = system: Salmonella typhimurium TA98; test: Bacterial Reverse Mutation Assay; details: Positive Control 1.25 g/plate, TA 98, with metabolic activation
Procedure: (§8) using the preincubation method (30 min, 37°C) with and without phenobarbital-5,6-benzoflavone induced
(§9) MG3 was dissolved in distilled water (H2O) at
(§10) the maximum concentration of 40 mg/mL and tested in a preliminary range-finding test in all strains of
(§11) metabolic activation to determine the toxicity of the compound.

[20] = system: Salmonella typhimurium TA100; test: Bacterial Reverse Mutation Assay; details: Positive Control 1.25 µg/plate, TA 100, with metabolic activation
Procedure: as §8, §9, §10, §11

[21] = system: Escherichia coli WP2 uvrA; test: Bacterial Reverse Mutation Assay; details: Positive Control 5 µg/plate, with metabolic activation
Procedure: as §8, §9, §10, §11

[22] = system: P. falciparum K1 (CQ-R); design: method as in PMID 17466277; details: literature value; read-out: IC50 against K1 strain; cited from earlier work
[23] = system: P. falciparum TM90C2A (CQ-R); test: In vitro antimalarial activity, [3H]-hypoxanthine incorporation (LSHTM); type: cell-based; details: Plasmodium falciparum, read-out: P. falciparum IC50 nM, TM90C2A (CQ-R)
[24] = system: P. falciparum field isolates; test: Chemosensitivity assay on field isolates; type: cell-based; details: Plasmodium falciparum
Procedure: (§7) The 10 P. vivax and 10 P. falciparum isolates used in this study were obtained from Mae Sod District, Tak Province, Thailand. […] Isolates were collected in 5 mL lithium-heparinized tubes and sent to the laboratory within 5–6 h.

[25] = system: P. vivax field isolates; test: Chemosensitivity assay on field isolates; type: cell-based; details: Plasmodium vivax, read-out: P. vivax IC50 nM, Field Isolates
Procedure: as §7

[26] = system: P. falciparum K1 (CQ-R); test: In vitro combination study (isobologram, ∑FIC); type: cell-based
[27] = K1, read-out: P. falciparum IC50 nM, K1 (CQ-R)
[28] = FCR3, read-out: P. falciparum IC50 nM, FCR3 (CQ-R)
[29] = 72 h, [3H]-hypoxanthine incorporation, mean of 3 experiments

## C[C@H]1[C@@H](O)O[C@@H]2O[C@@]3(C)CC[C@H]4[C@H](C)CC[C@@H]1[C@@]24OO3 [DHA, dihydroartemisinin]
[1]
  IC50: 3.9 nM
[2]
  IC50: 3 nM
[3]
  IC50: 1.8 nM
[4]; [27]
  IC50: 1.4 nM
[5]; [28]
  IC50: 1.23 nM
[6]
  IC50: 2 nM
[7]; read-out: P. falciparum IC50 nM, IPC5202 (ARM-R), 72 h incubation, pLDH method
  IC50: 2.2 nM

## CCN(CC)Cc1cc(Nc2ccnc3cc(Cl)ccc23)ccc1O [Amodiaquine, amodiaquine]
[8]; oral dose 3 x 10 mg/kg
  % Suppression of parasitaemia (on day 4 post infection): 100%
  Average survival (days) after infection: 11 (9, 11, 11, 12, 13) days

## CC(C)(C)NCc1cc(Nc2ccnc3cc(Cl)ccc23)ccc1F [FAQ4, 4′-Fluoro-N-tert-butylamodiaquine]
[9]
  ED50 (95% CI) Mean: 5.30 (4.10–6.80) mg/kg
  ED90 (95% CI) Mean: 12.40 (10.7–14.4) mg/kg
[10]
  ED50 (95% CI) Mean: 7.70 (6.70–8.90) mg/kg
  ED90 (95% CI) Mean: 10.60 (9.40–11.80) mg/kg

## CC(C)(C)NCc1ccc(Nc2ccnc3cc(Cl)ccc23)cc1O [NTBI, N-tert-butyl isoquine]
[11]; literature value
  absolute bioavailability: 68%

## CN(C)c1ccc2nc3ccc(=[N+](C)C)cc-3sc2c1 [Methylene Blue, reference compound]
[12]
  IC50: 145 ± 42.6 nM
[13]; 3D7, read-out: Pf-3D7 gametocytes IC50 (nM), >95% Stage I-III, luciferase readout, 3D7elo1-pfs16-CBG99
  IC50: 59.6 ± 21.7 nM

## OC(Nc1ccnc2cc(Cl)ccc12)C12CCCN1CCC2 (stereo not drawn) [M2]
[14]
  % of Total Drug Related Material: 6%
[15]
  % of Total Drug Related Material: 27%
[16]
  % of Total Drug Related Material: 1%
[17]
  % of Total Drug Related Material: 3%
[18]
  % of Total Drug Related Material: 1%

## Nc1ccc2cc3ccccc3cc2c1 [2-aminoanthracene, reference compound]
[19]; I° Exp.
  fold increase value (ratio treated/solvent revertant numbers): 37.2
[19]; Range finding
  fold increase value (ratio treated/solvent revertant numbers): 26.5
[20]; I° Exp.
  fold increase value (ratio treated/solvent revertant numbers): 5.1
[20]; Range finding
  fold increase value (ratio treated/solvent revertant numbers): 7.7
[21]; I° Exp.
  fold increase value (ratio treated/solvent revertant numbers): 13.0
[21]; Range finding
  fold increase value (ratio treated/solvent revertant numbers): 8.2

## Clc1ccc2c(N3CCN(CCCN4CCN(c5ccnc6cc(Cl)ccc56)CC4)CC3)ccnc2c1 [piperaquine]
[22]
  IC50: 49 nM

## C[C@H]1[C@H](OC(=O)CCC(=O)O)O[C@@H]2O[C@@]3(C)CC[C@H]4[C@H](C)CC[C@@H]1[C@@]24OO3 [ASN, artesunate]
[23]; [29]
  IC50: 2.6 nM
[3]; [29]
  IC50: 2.7 nM
[4]; K1, 72 h, [3H]-hypoxanthine incorporation, mean of 3 experiments, read-out: P. falciparum IC50 nM, K1 (CQ-R)
  IC50: 2.6 nM
[5]; FCR3, 72 h, [3H]-hypoxanthine incorporation, mean of 3 experiments, read-out: P. falciparum IC50 nM, FCR3 (CQ-R)
  IC50: 2.6 nM
[24]; mean of 10 field isolates, Thai Burmese Border, read-out: P. falciparum IC50 nM, Field Isolates
  IC50: 4.2 nM
[25]; mean of 10 field isolates, Thai Burmese Border
  IC50: 2.3 nM
[8]; oral dose 3 x 30 mg/kg
  % Suppression of parasitaemia (on day 4 post infection): 99.09%
  Average survival (days) after infection: 8 (7, 8, 8, 9, 9) days

## CCN(CC)CCCNc1ccnc2cc(Cl)ccc12 [AQ13]
[11]; in vivo
  absolute bioavailability: 70%

## CCN(CC)CCCC(C)Nc1ccnc2cc(Cl)ccc12 (stereo not drawn) [CQ, chloroquine]
[1]
  IC50: 16.5 nM
[2]
  IC50: 12.1 nM
[23]
  IC50: 145 nM
[3]
  IC50: 774 nM
[26]; in combination with ASN, K1, IC50 level
  Mean ∑FIC50 (95% CI): 1.67 (1.44 – 1.90)
[26]; in combination with DHA, K1, IC50 level
  Mean ∑FIC50 (95% CI): 1.27 (1.16 – 1.38)
[26]; in combination with RKA-182, K1, IC50 level
  Mean ∑FIC50 (95% CI): 1.19 (0.77 – 1.60)
[4]; [27]
  IC50: 708 nM
[5]; [28]
  IC50: 194 nM
[12]
  IC50: 11700 ± 4120 nM
[13]; 3D7, read-out: Pf-3D7 gametocytes IC50 (nM), >95% Stage I-III
  IC50: 104 ± 34.7 nM
[24]; read-out: P. falciparum IC50 nM, Field Isolates, mean of 10 field isolates, Thai Burmese Border
  IC50: 252 nM
[25]
  IC50: 86.6 nM
[6]
  IC50: 294 nM
[8]; oral dose 3 x 30 mg/kg
  % Suppression of parasitaemia (on day 4 post infection): 99.84%
  Average survival (days) after infection: 13 (12, 12, 13, 13, 13) days
[7]; read-out: P. falciparum IC50 nM, IPC5202 (ARM-R)
  IC50: 163 nM
